Data: patent US8536187B2 (Gilead Sciences, Inc., priority 2008, dated 2013)

Assays:
[1] = system: HCV replicon in human hepatoma Huh-7 cell line; test: Anti-HCV replicon assay, EC50 (luciferase luminescence); type: cell-based; conditions: Hepatitis C virus, Huh-7, 72 h
Protocol: (§1) The anti-HCV activity of the pyrido[3,2-d]pyrimidine derivatives of this invention was tested in a human hepatoma Huh-7 cell line harboring a HCV replicon. The assay comprised the following steps: • Step 1: compound preparation and serial dilution: serial dilution is performed in 50% DMSO in a 384-well plate. A solution containing a compound at 100-fold concentration of the starting final serial dilution concentration was prepared in 50% DMSO and added to the pre-specified wells in column 1 of a polypropylene 384-well plate. The plate was then placed on a Precision 2000 Workstation to start the serial dilution. After the serial dilution, a volume of 2 μL of the solution was transferred from the 384-well plate to a 96-well cell culture plate containing 100 μL of cell media on a Biomek FX Workstation. The DMSO concentration in the final assay condition was 0.5% after cells are added to the plate and the total volume in each well is brought to 200 μL. • Step 2: to each well of the serial dilution plate prepared above, 100 μL of cell media containing 6000 suspended Huh-7 HCV replicon cells was added with a Multidrop workstation. The plates were incubated for 3 days at 37° C. with 5% CO2. • Step 3: detection: • a) for the EC50 assay, the media in a 96-well cell culture plate was aspirated with a Biotek EL405 plate-washer. A volume of 200 μL of a solution containing a 1:1 mixture of cell-lysis buffer (Promega, Luciferase Cell Culture Lysis 5× Reagent, cat. #E1531) and luciferase substrate solution (Promega, Luciferase Assay, cat.# E4550) was added to each well of the plate with Multidrop. The plate was incubated for 30 minutes at room temperature before the luminescence signal was measured with a TopCount plate-reader. • b) for the CC50 assay, a volume of 100 μL of pre-mixed CellTiter-Glo (Promega, cat.# G7572) solution is added directly to the cell culture in each well of the plate and the luminescence signal is measured with a TopCount plate-reader after 10 minutes of incubation at room temperature.

[2] = CC50 assay (CellTiter-Glo) in Huh-7 HCV replicon cells; type: cell-based; conditions: human
Protocol: as §1

Row | Structure (SMILES) | EC50 [1] | CC50 at 3 days ([2]; Table 2, 3 days incubation) | CC50 at 3 days ([2]; Table 1, 3 days incubation)
1 | Cc1ccc(-c2ccc3nc(NCc4cccc(S(C)(=O)=O)c4)nc(NCC(F)(F)F)c3n2)cc1S(C)(=O)=O [Example 173, N^2-(3-(methylsulfonyl)benzyl)-6-(4-methyl-3-(methylsulfonyl)phenyl)-N^4-(2,2,2-trifluoroethyl) pyrido[3,2-d]pyrimidine-2,4-diamine] | < 100 nM | 1000 to 10000 nM | –
2 | COCc1ccc(-c2ccc3nc(NCc4ccc(S(N)(=O)=O)cc4)nc(NC4(C(F)(F)F)CC4)c3n2)cc1S(C)(=O)=O [Example 30, 4-{[6-(3-methanesulfonyl-4-methoxymethylphenyl)-4-(1-trifluoromethyl-cyclopropylamino)-pyrido[3,2-d]pyrimidin-2-ylamino]-methyl}-benzenesulfonamide] | < 100 nM | > 10000 nM | –
3 | COc1ccc(-c2ccc3nc(NCc4ccc(C)c(F)c4)nc(NCC(F)(F)F)c3n2)cc1S(C)(=O)=O [Example 176, N^2-(3-fluoro-4-methylbenzyl)-6-(4-methoxy-3-(methylsulfonyl)phenyl)-N^4-(2,2,2-trifluoroethyl) pyrido[3,2-d]pyrimidine-2,4-diamine] | < 100 nM | 1000 to 10000 nM | –
4 | COc1ccc(-c2ccc3nc(NCc4ccc(F)c(F)c4)nc(NCC(F)(F)F)c3n2)cc1S(C)(=O)=O [Example 161, N^2-(3,4-difluorobenzyl)-6-(4-methoxy-3-(methylsulfonyl)phenyl)-N^4-(2,2,2-trifluoroethyl) pyrido[3,2-d]pyrimidine-2,4-diamine] | < 100 nM | > 10000 nM | –
5 | CS(=O)(=O)c1cccc(-c2ccc3nc(NCc4ccc(-n5cccn5)cc4)nc(NCC(F)(F)F)c3n2)c1 [Example 167, N^2-(4-(1H-pyrazol-1-yl)benzyl)-6-(3-(methylsulfonyl)phenyl)-N^4-(2,2,2-trifluoroethyl)pyrido [3,2-d]pyrimidine-2,4-diamine] | < 100 nM | > 10000 nM | –
6 | Nc1ccc(-c2ccc3nc(NCc4ccc(-n5cncn5)cc4)nc(NC4(C(F)(F)F)CC4)c3n2)cn1 [Example 112, N^2-(4-(1H-1,2,4-triazol-1-yl)benzyl)-6-(6-aminopyridin-3-yl)-N^4-(1-(trifluoromethyl)cyclopropyl)pyrido[3,2-d] pyrimidine-2,4-diamine] | < 100 nM | 1000 to 10000 nM | –
7 | COc1ccc(-c2ccc3nc(NC(C)c4cc(F)cc(F)c4)nc(NCC(F)(F)F)c3n2)cc1S(N)(=O)=O (stereo not drawn) [Example 235, 5-(2-(1-(3,5-difluorophenyl)ethylamino)-4-(2,2,2-trifluoroethylamino)pyrido [3,2-d]pyrimidin-6-yl)-2-methoxybenzenesulfonamide] | 100 to 250 nM | 1000 to 10000 nM | –
8 | [2H]C([2H])([2H])C([2H])([2H])Oc1ccc(-c2ccc3nc(N[C@H](C)c4ccc(-n5cncn5)cc4)nc(NCC(F)(F)F)c3n2)cn1 [Example 255, N^2-((R)-1-(4-(1H-1,2,4-triazol-1-yl)phenyl)ethyl)-6-(6-pentadeuteroethoxypyridin-3-yl)-N^4-(2,2,2-trifluoroethyl) pyrido[3,2-d]pyrimidine-2,4-diamine] | < 100 nM | 1000 to 10000 nM | –
9 | COCC#Cc1ccc2nc(NCc3cc(Cl)cc(S(N)(=O)=O)c3)nc(NC3(C(F)(F)F)CC3)c2n1 [Example 46, 3-chloro-5-((6-(3-methoxyprop-1-ynyl)-4-(1-(trifluoromethyl)cyclopropyl-amino)pyrido[3,2-d]pyrimidin-2-ylamino)methyl)benzene-sulfonamide] | < 100 nM | > 10000 nM | –
10 | C[C@@H](Nc1nc(O[C@@H]2C[C@@H]3C[C@@H]3C2)c2nc(C#CC3CC3)ccc2n1)c1ccc(S(N)(=O)=O)cc1 [Example 299, 4-((R)-1-(4-((1S,3r,5R)-bicyclo [3.1.0]hexan-3-yloxy)-6-(2-cyclopropylethynyl)pyrido [3,2-d]pyrimidin-2-ylamino)ethyl)benzenesulfonamide] | < 100 nM | 1000 to 10000 nM | –
11 | NS(=O)(=O)c1ccc(CNc2nc(NC3(C(F)(F)F)CC3)c3nc(-c4ccc(F)nc4)ccc3n2)cc1 [Example 96, 4-((6-(6-fluoropyridin-3-yl)-4-(1-(trifluoromethyl)cyclopropyl-amino)pyrido[3,2-d]pyrimidin-2-ylamino)methyl)benzene-sulfonamide] | < 100 nM | 1000 to 10000 nM | –
12 | C[C@@H](Nc1nc(NCC(F)(F)F)c2nc(C#CC(C)(C)O)ccc2n1)c1ccc(S(N)(=O)=O)cc1 [Example 276, (R)-4-(1-(6-(3-hydroxy-3-methylbut-1-ynyl)-4-(2,2,2-trifluoroethylamino)pyrido [3,2-d]pyrimidin-2-ylamino)ethyl)benzenesulfonamide] | 250 to 2000 nM | > 10000 nM | –
13 | COCC#Cc1ccc2nc(NCc3cc(C(F)(F)F)cc(S(N)(=O)=O)c3)nc(NCC(F)(F)F)c2n1 [Example 282, 3-((6-(3-methoxyprop-1-ynyl)-4-(2,2,2-trifluoroethylamino)pyrido[3,2-d]pyrimidin-2-ylamino)methyl)-5-(trifluoro-methyl)benzenesulfonamide] | 250 to 2000 nM | > 10000 nM | –
14 | C[C@@H](Nc1nc(NCC(F)(F)F)c2nc(-c3ccc(Cl)c(S(C)(=O)=O)c3)ccc2n1)c1ccc(S(N)(=O)=O)cc1 [Example 155, 4-((R)-1-(6-(4-chloro-3-(methylsulfonyl)phenyl)-4-(2,2,2-trifluoroethylamino)pyrido[3,2-d]pyrimidin-2-ylamino)ethyl)benzene-sulfonamide] | < 100 nM | 1000 to 10000 nM | –
15 | CC1(Oc2nc(NCc3cc(Cl)cc(S(N)(=O)=O)c3)nc3ccc(C#CC4CC4)nc23)CC1 [Example 301, 3-chloro-5-((6-(2-cyclopropyl-ethynyl)-4-(1-methylcyclo-propoxy)pyrido[3,2-d]pyrimidin-2-ylamino)methyl) benzenesulfonamide] | < 100 nM | > 10000 nM | –
16 | NS(=O)(=O)c1ccc(CNc2nc(NCC(F)(F)F)c3nc(-c4ccc(F)cc4)ccc3n2)cc1C(F)(F)F [Example 9, 4-{[6-(4-Fluoro-phenyl)-4-(2,2,2-trifluoro-ethylamino)-pyrido[3,2-d]pyrimidin-2-ylamino]-methyl}-2-trifluoromethyl-benzenesulfonamide] | 250 to 2000 nM | – | > 25000 nM
17 | CC#Cc1ccc2nc(N[C@H](C)c3ccc(S(N)(=O)=O)cc3)nc(OC3CC3)c2n1 [Example 309, (R)-4-(1-(4-cyclopropoxy-6-(prop-1-ynyl)pyrido[3,2-d]pyrimidin-2-ylamino)ethyl) benzenesulfonamide] | < 100 nM | > 10000 nM | –
18 | NS(=O)(=O)c1ccc(CNc2nc(NCC(F)(F)F)c3nc(C#CC4CC4)ccc3n2)cc1 [Example 279, 4-((6-(2-cyclopropylethynyl)-4-(2,2,2-trifluoroethylamino)pyrido[3,2-d]pyrimidin-2-ylamino)methyl)benzene-sulfonamide] | 100 to 250 nM | > 10000 nM | –
19 | COc1ccc(-c2ccc3nc(NCc4ccc(S(N)(=O)=O)cc4)nc(NC4(C(F)(F)F)CC4)c3n2)cc1C(F)(F)F [Example 75, 4-((6-(4-methoxy-3-(trifluoromethyl)phenyl)-4-(1-(trifluoromethyl)cyclopropyl-amino)pyrido[3,2-d]pyrimidin-2-ylamino)methyl)benzene-sulfonamide] | 250 to 2000 nM | > 10000 nM | –
20 | CS(=O)(=O)c1cccc(-c2ccc3nc(NCc4cccc(S(N)(=O)=O)c4)nc(NCC(F)(F)F)c3n2)c1 [Example 14, 3-{[6-(3-Methanesulfonyl-phenyl)-4-(2,2,2-trifluoro-ethylamino)-pyrido[3,2-d]pyrimidin-2-ylamino]-methyl}-benzenesulfonamide] | < 100 nM | – | 10000 to 25000 nM
21 | Fc1ccc(-c2ccc3nc(NCc4cccc(-n5cncn5)c4)nc(NCC(F)(F)F)c3n2)cc1 [Example 1, 6-(4-Fluoro-phenyl)-N2-(3-[1,2,4]-triazol-1-yl-benzyl)-N4-(2,2,2-trifluoro-ethyl)-pyrido[3,2-d]pyrimidine-2,4-diamine] | 100 to 250 nM | – | > 25000 nM
22 | CN1CCN(c2ccc(-c3ccc4nc(NCc5cccc(S(C)(=O)=O)c5)nc(NC5(C(F)(F)F)CC5)c4n3)cc2)C1=O [Example 50, 1-(4-(2-(3-(methylsulfonyl)benzylamino)-4-(1-(trifluoromethyl)cyclopropylamino)pyrido[3,2-d]pyrimidin-6-yl)phenyl)-3-methylimidazolidin-2-one] | < 100 nM | 1000 to 10000 nM | –
23 | COc1ccc(-c2ccc3nc(NCc4ccc(S(N)(=O)=O)cc4)nc(NCC(F)(F)F)c3n2)cc1C(N)=O [Example 226, 4-((6-(3-(aminocarbonyl)l-4-methoxyphenyl)-4-(2,2,2-trifluoroethylamino)pyrido [3,2-d]pyrimidin-2-ylamino)methyl)benzene-sulfonamide] | < 100 nM | – | –
